PubChem BioAssay AID1963974 (Molecular Pharmacology Branch, DTP, NCI, 2024)

System: 648629-189-R-J1-PDC spheroids with HUVEC/MSC, viability
Assay: Anticancer human tumor 648629-189-R-J1-PDC patient-derived bladder carcinoma cell line growth inhibition [PI3K]
Details: for IC50: curve of first compound; for viability, T/C: stronger effect = lower value
Procedure, shortened: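 Stroma-containing spheroids: tumor line, pooled-donor HUVEC, hMSC. Treatments: targeted agents with PI3K inhibitors. Dosing: clinically relevant, half-log spacing, 10 microM ceiling without known Cmax. Read-out: cell viability.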

[1] = second compound 0.00316 µM, first compound 0.0316 µM
[2] = second compound 0.00316 µM, first compound 0.1 µM
[3] = second compound 0.00316 µM, first compound 0.316 µM
[4] = second compound 0.00316 µM, first compound 1 µM
[5] = second compound 0.00316 µM, first compound 3.16 µM
[6] = second compound 0.00316 µM, first compound 10 µM
[7] = second compound 0.01 µM, first compound 0.0316 µM
[8] = second compound 0.01 µM, first compound 0.1 µM
[9] = second compound 0.01 µM, first compound 0.316 µM
[10] = second compound 0.01 µM, first compound 1 µM
[11] = second compound 0.01 µM, first compound 3.16 µM
[12] = second compound 0.01 µM, first compound 10 µM
[13] = second compound 0.0316 µM, first compound 0.0316 µM
[14] = second compound 0.0316 µM, first compound 0.1 µM
[15] = second compound 0.0316 µM, first compound 0.316 µM
[16] = second compound 0.0316 µM, first compound 1 µM
[17] = second compound 0.0316 µM, first compound 3.16 µM
[18] = second compound 0.0316 µM, first compound 10 µM
[19] = second compound 0.1 µM, first compound 0.0316 µM
[20] = second compound 0.1 µM, first compound 0.1 µM
[21] = second compound 0.1 µM, first compound 0.316 µM
[22] = second compound 0.1 µM, first compound 1 µM
[23] = second compound 0.1 µM, first compound 3.16 µM
[24] = second compound 0.1 µM, first compound 10 µM
[25] = second compound 0.316 µM, first compound 0.0316 µM
[26] = second compound 0.316 µM, first compound 0.1 µM
[27] = second compound 0.316 µM, first compound 0.316 µM
[28] = second compound 0.316 µM, first compound 1 µM
[29] = second compound 0.316 µM, first compound 3.16 µM
[30] = second compound 0.316 µM, first compound 10 µM
[31] = second compound 1 µM, first compound 0.0316 µM
[32] = second compound 1 µM, first compound 0.1 µM
[33] = second compound 1 µM, first compound 0.316 µM
[34] = second compound 1 µM, first compound 1 µM
[35] = second compound 1 µM, first compound 3.16 µM
[36] = second compound 1 µM, first compound 10 µM
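Further: spheroids exposed to agents for seven days before reading.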
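Wherever viability, T/C is given: percent of vehicle control luminescence where 100% = DMSO treated spheroids.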

What does the source list for CC(Cn1ccc(-c2ccc(C#N)c(Cl)c2)n1)NC(=O)c1cc(C(C)O)[nH]n1 (centres undefined) + CC(Nc1ccc2c(c1)OCCn1cc(N3C(=O)OCC3C(F)F)nc1-2)C(N)=O?
IC50 (second compound 0.00316 µM): > 10 µM; IC50 (second compound 0.01 µM): > 10 µM; IC50 (second compound 0.0316 µM): > 10 µM; IC50 (second compound 0.1 µM): > 10 µM; IC50 (second compound 0.316 µM): > 10 µM; IC50 (second compound 1 µM): > 10 µM; viability, T/C [1]: 99.9%; viability, T/C [2]: 97.1%; viability, T/C [3]: 92.5%; viability, T/C [4]: 90.1%; viability, T/C [5]: 85.7%; viability, T/C [6]: 68.3%; viability, T/C [7]: 92.7%; viability, T/C [8]: 97.2%; viability, T/C [9]: 92.9%; viability, T/C [10]: 88.3%; viability, T/C [11]: 89.9%; viability, T/C [12]: 70.4%; viability, T/C [13]: 97.2%; viability, T/C [14]: 98.7%; viability, T/C [15]: 95.2%; viability, T/C [16]: 83.5%; viability, T/C [17]: 83.8%; viability, T/C [18]: 75.5%; viability, T/C [19]: 106%; viability, T/C [20]: 86.9%; viability, T/C [21]: 85.8%; viability, T/C [22]: 86.2%; viability, T/C [23]: 84.5%; viability, T/C [24]: 72%; viability, T/C [25]: 83.8%; viability, T/C [26]: 87.5%; viability, T/C [27]: 78.1%; viability, T/C [28]: 94.2%; viability, T/C [29]: 72.8%; viability, T/C [30]: 58.2%; viability, T/C [31]: 73.2%; viability, T/C [32]: 71.6%; viability, T/C [33]: 61.5%; viability, T/C [34]: 67.6%; viability, T/C [35]: 60%; viability, T/C [36]: 57.9%

What does the source list for CC1(C)CCC(Nc2ncc(C(F)(F)F)c(-c3c[nH]c4c(P(C)(C)=O)c(C#N)ccc34)n2)CN1 (centres undefined) + CC(Nc1ccc2c(c1)OCCn1cc(N3C(=O)OCC3C(F)F)nc1-2)C(N)=O?
IC50 (second compound 0.00316 µM): < 0.0316 µM; IC50 (second compound 0.01 µM): < 0.0316 µM; IC50 (second compound 0.0316 µM): < 0.0316 µM; IC50 (second compound 0.1 µM): < 0.0316 µM; IC50 (second compound 0.316 µM): < 0.0316 µM; IC50 (second compound 1 µM): < 0.0316 µM; viability, T/C [1]: 27.7%; viability, T/C [2]: 27.2%; viability, T/C [3]: 26.8%; viability, T/C [4]: 35.4%; viability, T/C [5]: 38.7%; viability, T/C [6]: 2.42%; viability, T/C [7]: 25.3%; viability, T/C [8]: 25.8%; viability, T/C [9]: 26.3%; viability, T/C [10]: 31.1%; viability, T/C [11]: 38.2%; viability, T/C [12]: 3.09%; viability, T/C [13]: 26.6%; viability, T/C [14]: 23.4%; viability, T/C [15]: 26.6%; viability, T/C [16]: 28.5%; viability, T/C [17]: 37.6%; viability, T/C [18]: 3%; viability, T/C [19]: 24.1%; viability, T/C [20]: 23.4%; viability, T/C [21]: 26.1%; viability, T/C [22]: 23.4%; viability, T/C [23]: 33.1%; viability, T/C [24]: 2.67%; viability, T/C [25]: 23.4%; viability, T/C [26]: 25.8%; viability, T/C [27]: 23.8%; viability, T/C [28]: 28.9%; viability, T/C [29]: 29.8%; viability, T/C [30]: 2.95%; viability, T/C [31]: 19.8%; viability, T/C [32]: 22.6%; viability, T/C [33]: 26.1%; viability, T/C [34]: 23.1%; viability, T/C [35]: 27.2%; viability, T/C [36]: 1.52%
